Legend:
[1] = Activity of metal complexes in removing garlic odor (sniffed for residual odor); design: key: ++: complete odor removal; +: slight odor remaining; −: no odor removal; NA: complex was not insoluble; ?: allyl mercaptan smell masked by methionine smell; conditions: 5 ml solution with 627 nmol allyl mercaptan in water, sealed vial, 10 minutes, room temperature
Description: Each amino acid solution was made by dissolving 2.74 g of the amino acid into 40 ml of water. The complex with the metal was synthesized as described in the second step of Example 1.
Odor removal was tested using 5 ml of a solution containing 627 nmol of allyl mercaptan in water. A suspension of the metal complex was mixed with the mercaptan solution, reacted in a sealed vial for 10 minutes at room temperature, and then sniffed for residual odor.

[2] = Sulfur compound adsorption in the presence of mint oil (sniff test), hydrogen sulfide; conditions: H2S 50 ppb, mint oil 50 ppb, adsorbent 0.1% w/v, 20 minutes of shaking, sniffed
Description: (§1) All dilution operations were done using water under nitrogen in capped bottles. Hydrogen sulfide was measured as a gas in a syringe and injected into a sealed bottle containing deoxygenated water. The concentration (ppb w/w) was calculated assuming all of the hydrogen sulfide (H2S) dissolved in the water after shaking, and using the density of the gas.
(§2) All of the liquid compounds were handled by syringe. Concentrations of thiols are reported assuming that their specific gravity is 1. Adsorbents, as made by Example 1, were weighed as dry powders into bottles before sealing and before the addition of room temperature dilute sulfide solution. After 20 minutes of shaking, the bottle was unsealed and the contents carefully sniffed.
(§3) The object of the experiment was to remove the thiol odor but not to remove the mint oil aroma.

[3] = Sulfur compound adsorption in the presence of mint oil (sniff test), allyl mercaptan; conditions: Allyl mercaptan 5 ppb (w/v), mint oil 50 ppb, adsorbent 0.1% w/v, 20 minutes of shaking, sniffed
Description: as §1, §2, §3

[4] = Sulfur compound adsorption in the presence of mint oil (sniff test), diallyl disulfide; conditions: Diallyl disulfide 5 ppb (w/v), mint oil 50 ppb, adsorbent 0.1% w/v, 20 minutes of shaking, sniffed
Description: as §1, §2, §3

[5] = Sulfur compound adsorption in the presence of mint oil (sniff test), propane thiol; conditions: Propane thiol 5 ppb (w/v), mint oil 50 ppb, adsorbent 0.1% w/v, 20 minutes of shaking, sniffed
Description: as §1, §2, §3

In the case of Cystine-copper Complex, the “Activity in removing garlic odor” value [1] was “++”, the “Smell Garlic, Effect” value [2] was “None” and the “Smell Mint, Effect” value [2] was “strong”. For the same substance, the “Smell Garlic, Effect” value [3] was “v. faint”, the “Smell Garlic, Effect” value [4] was “v. weak” and the “Smell Garlic, Effect” value [5] was “Faint”.

Source: patent publication US6403642B1, “Sulfur adsorbent for reducing onion or garlic breath odor” (PQ Holding, Inc., priority 1999, dated 2002)
